Assay results published in patent publication US8906945B2 (priority 2009, dated 2014).
Like-named read-outs stand apart in the source and are kept apart here.

Tests used:
[1] = test system: T3SS-mediated secretion of ExoS′-βLA fusion protein from P. aeruginosa strain MDM973; experiment: microbe, parasite or virus in culture; assay type: cell-based, Pseudomonas aeruginosa
[2] = test system: P. aeruginosa T3SS (exoT-luxCDABE reporter strain MDM852); assay type: cell-based, Pseudomonas aeruginosa; details: Table 5; % inhibition of exoT-lux RLU/% inhibition of lac-lux RLU, both at 50 μM compound
[3] = Pseudomonas aeruginosa, read-out: IC50 (μM) (ExoS′-βLA assay), Table 4
[4] = Pseudomonas aeruginosa, read-out: ExoS′-βLA IC50, Table 5, P. aeruginosa strain MDM973
[5] = Table 4, read-out: IC50 (μM) (ExoS′-βLA assay)

## Cc1ccc(CNC(=O)C(C)Oc2ccc(Cl)cc2Cl)cc1 (racemic) [compound 6109233, 2-(2,4-dichlorophenoxy)-N-(4-methylbenzyl)propanamide]
[1]; [3]
  IC50: 5 µM

## Cc1cc(Cl)ccc1OC(C)C(=O)NCc1ccc2c(c1)OCO2 (racemic) [compound 6116488, N-(1,3-benzodioxol-5-ylmethyl)-2-(4-chloro-2-methylphenoxy)propanamide]
[1]; [3]
  IC50: 98 µM

## CC(Oc1ccc(Cl)cc1Cl)C(=O)NCc1ccncc1 (racemic) [compound 6372013, 2-(2,4-dichlorophenoxy)-N-(4-pyridinylmethyl)propanamide]
[1]; [3]
  IC50: 59 µM

## COc1ccccc1CNC(=O)C(C)Oc1ccc(Cl)cc1Cl (racemic) [compound 6374948, 2-(2,4-dichlorophenoxy)-N-(2-methoxybenzyl)propanamide]
[1]; [3]
  IC50: 12 µM

## COc1ccc(CNC(=O)C(C)Oc2ccc(Cl)cc2Cl)cc1 (racemic) [compound 6375680, 2-(2,4-dichlorophenoxy)-N-(4-methoxybenzyl)propanamide]
[1]; [3]
  IC50: 10 µM

## CC(Oc1ccc(Cl)cc1Cl)C(=O)NCCC1=CCCCC1 (racemic) [compound 6467504, N-[2-(1-cyclohexen-1-yl)ethyl]-2-(2,4-dichlorophenoxy)propanamide]
[1]; [3]
  IC50: > 100 µM

## CC(Oc1ccc(Cl)cc1Cl)C(=O)N(C)Cc1ccccc1 (racemic) [compound 6468028, N-benzyl-2-(2,4-dichlorophenoxy)-N-methylpropanamide]
[1]; [3]
  IC50: 21 µM

## CC(Oc1ccc(Cl)cc1Cl)C(=O)NCc1ccc(Cl)c(Cl)c1 (racemic) [compound 7271715, N-(3,4-dichlorobenzyl)-2-(2,4-dichlorophenoxy)propanamide]
[1]; [3]
  IC50: > 100 µM

## Cc1nn(C)cc1CNC(=O)C(C)Oc1ccc(Cl)cc1Cl (racemic) [compound 8804126, 2-(2,4-dichlorophenoxy)-N-[(1,3-dimethyl-1H-pyrazol-4-yl)methyl]propanamide]
[1]; [3]
  IC50: 61 µM

## CC(Oc1ccccc1Cl)C(=O)NCc1ccc2c(c1)OCO2 (racemic) [compound 9153915, N-(1,3-benzodioxol-5-ylmethyl)-2-(2-chlorophenoxy)propanamide]
[1]; [3]
  IC50: 23 µM

## Cc1nnc(-c2ccc(OCC(=O)N3CCc4ccccc43)cc2)o1 [F5054-0019, 1-(indolin-1-yl)-2-(4-(5-methyl-1,3,4-oxadiazol-2-yl)phenoxy)ethanone]
[2]
  RLU-S (RLU Selectivity): 10.8
[1]; [4]
  IC50: 22.3 µM

## O=C(COc1ccc(Cl)cc1Cl)NCc1ccc2c(c1)OCO2 [MBX 1668, N-[3,4-(methylenedioxy)benzyl]-2-(2,4-dichlorophenoxy)acetamide]
[1]; [5]
  IC50: > 100 µM

## C[C@@H](Oc1ccc(Cl)cc1Cl)C(=O)NCc1ccc2c(c1)OCO2 [MBX 1684, (R)-N-(benzo[d][1,3]dioxol-5-ylmethyl)-2-(2,4-dichlorophenoxy)propanamide]
[1]; ExoS′-βLA reporter assay
  T3SS inhibitory activity (active/inactive): active
[1]; [3]
  IC50: 6 µM
[1]; Pseudomonas aeruginosa, read-out: IC50 in the ExoS′-βLA secretion assay
  IC50: ~6 µM

## CC(C)(Oc1ccc(Cl)cc1Cl)C(=O)NCc1ccc2c(c1)OCO2 [MBX 1685, N-[3,4-(methylenedioxy)benzyl]-2-(2,4-dichlorophenoxy)-2-methylpropanamide]
[1]; [5]
  IC50: > 100 µM

## C[C@H](Oc1ccc(Cl)cc1Cl)C(=O)NCc1ccc2c(c1)OCO2 [MBX 1686, N-[3,4-(methylenedioxy)benzyl]-(S)-2-(2,4-dichlorophenoxy)propanamide]
[1]
  T3SS inhibitory activity (active/inactive): inactive
[1]; [5]
  IC50: > 100 µM
[1]; read-out: IC50 in the ExoS′-βLA secretion assay
  IC50: > 100 µM

## Oc1ccc(O)c(Cc2nc3ccccc3[nH]2)c1 [compound 6430631, 2-((1H-benzo[d]imidazol-2-yl)methyl)benzene-1,4-diol]
[2]
  RLU-S (RLU Selectivity): 4.2
[1]; [4]
  IC50: 22.3 µM

## CC(Oc1ccc(Cl)cc1Cl)C(=O)NC(C)C1CC2CCC1C2 (stereo not shown) [compound 7247834, N-(1-(bicyclo[2.2.1]heptan-2-yl)ethyl)-2-(2,4-dichlorophenoxy)propanamide]
[2]
  RLU-S (RLU Selectivity): 5.6
[1]; [4]
  IC50: 16.7 µM

## CC(Oc1ccccc1F)C(=O)NCc1ccc2c(c1)OCO2 (stereo not shown) [compound 7339628]
[1]; [5]
  IC50: > 100 µM
